# Experimental data: PMC5785467 (Nature, 2018)
# Biological target: T1, beetle ICMT (Tribolium castaneum, UniProt D6WJ77)
# T1 sequence (D6WJ77 1-281): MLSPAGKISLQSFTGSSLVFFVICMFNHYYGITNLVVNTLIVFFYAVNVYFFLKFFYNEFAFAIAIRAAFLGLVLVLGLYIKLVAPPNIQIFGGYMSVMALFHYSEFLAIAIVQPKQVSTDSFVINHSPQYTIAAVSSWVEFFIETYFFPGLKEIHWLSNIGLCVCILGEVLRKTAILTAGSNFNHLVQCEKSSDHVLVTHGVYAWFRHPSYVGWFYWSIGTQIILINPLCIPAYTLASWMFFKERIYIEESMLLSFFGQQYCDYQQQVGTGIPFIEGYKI
# Assay: X-ray crystal structure, […] Å
# Type: binding
# Details: complex with monobody MB-15, lipidic cubic phase; cofactor site
structure (smiles),measurement,value
Nc1ncnc2c1ncn2[C@@H]1O[C@H](CSCC[C@H](N)C(=O)O)[C@@H](O)[C@H]1O [AdoHcy],"X-ray crystal structure, 2.3 Å",AdoHcy is encapsulated within a pocket that is formed by the M6–M7 connector
